Patent publication US9714238B2, “Therapeutic agents for ocular hypertension” (Allergan, Inc., priority 2010, dated 2017)

Assays:
EP2 [1] = biological target: T1, EP2 (Homo sapiens, UniProt P43116); assay: EP2 cAMP functional assay; assay type: cell-based; conditions: unit inferred
Description: (§1) Data from running binding and activity studies on the compounds of the invention were carried out as described in the U.S. Pat. No. 7,427,685, the contents of which are incorporated herein by reference.

EP4 [2] = biological target: T2, EP4 (Homo sapiens, UniProt P35408); assay: EP4 binding; conditions: unit inferred
T2 sequence (P35408 whole entry): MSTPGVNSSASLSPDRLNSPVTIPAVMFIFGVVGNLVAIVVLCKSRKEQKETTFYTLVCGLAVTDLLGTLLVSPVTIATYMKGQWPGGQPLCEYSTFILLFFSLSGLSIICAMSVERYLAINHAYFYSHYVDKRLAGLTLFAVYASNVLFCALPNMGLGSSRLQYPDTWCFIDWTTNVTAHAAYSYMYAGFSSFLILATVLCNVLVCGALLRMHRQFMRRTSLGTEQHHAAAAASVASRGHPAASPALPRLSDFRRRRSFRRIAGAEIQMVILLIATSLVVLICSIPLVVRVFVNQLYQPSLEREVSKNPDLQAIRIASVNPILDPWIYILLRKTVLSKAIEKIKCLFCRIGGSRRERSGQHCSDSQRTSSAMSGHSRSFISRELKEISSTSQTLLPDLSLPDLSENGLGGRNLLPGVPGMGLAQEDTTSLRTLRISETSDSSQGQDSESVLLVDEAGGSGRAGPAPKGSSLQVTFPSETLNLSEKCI
Description: as §1

EP4 [3] = biological target: T2, EP4; assay: EP4 cAMP functional assay; assay type: cell-based; conditions: unit inferred
Description: as §1

EP2 [4] = biological target: T1, EP2; assay: EP2 binding; conditions: unit inferred
Description: as §1

normotensive dogs = assay: Intraocular pressure and ocular surface hyperemia in normotensive dogs; assay type: in vivo, dog
Description: Isopropyl 2-(3-(6-hexyl-1-naphthamido)phenoxy)acetate was tested in normotensive dogs at 0.05%, dosing once daily for 5 days. The maximum intraocular pressure (IOP) decrease from baseline was 4.7 mmHg (28%) at 30 h; the maximum ocular surface hyperemia (OSH) score was 1.0 at 26 h. This compound was also tested in laser-induced hypertensive monkeys, using one single day dose. At 0.05%, the maximum IOP decrease from baseline was 17.1 mmHg (48%) at 24 h.
Isopropyl 2-(3-(6-(1-hydroxyhexyl)-1-naphthamido)phenoxy)acetate was tested in normotensive dogs at two concentrations, dosing once daily for 5 days. At 0.005%, the maximum intraocular pressure (IOP) decrease from baseline was 4.1 mmHg (22%) at 4 h; the maximum ocular surface hyperemia (OSH) score was 1.6 at 2 h. At 0.01%, the maximum intraocular pressure (IOP) decrease from baseline was 4.4 mmHg (26%) at 4 h; the maximum ocular surface hyperemia (OSH) score was 1.5 at 50 h. This compound was also tested in laser-induced hypertensive monkeys at two concentrations, using one single day dose. At 0.005%, the maximum IOP decrease from baseline was 8.1 mmHg (30%) at 24 h. At 0.01%, the maximum IOP decrease from baseline was 15.4 mmHg (42%) at 24 h.
Isopropyl 2-(3-(6-butyl-1-naphthamido)phenoxy)acetate was tested in normotensive dogs at 0.01%, dosing once daily for 4 days. The maximum intraocular pressure (IOP) decrease from baseline was 5.1 mmHg (26%) at 78 h; the maximum ocular surface hyperemia (OSH) score was 0.9 at 4 h. This compound was also tested in laser-induced hypertensive monkeys, using one single day dose. At 0.01%, the maximum IOP decrease from baseline was 14.1 mmHg (38%) at 24 h.
Isopropyl 2-(3-(3-hexylquinoline-8-carboxamido)phenoxy)acetate was tested in normotensive dogs at 0.01%, dosing once daily for 5 days. The maximum intraocular pressure (IOP) decrease from baseline was 2.8 mmHg (14%) at 100 h; the maximum ocular surface hyperemia (OSH) score was 0.8 at 28 h. This compound was also tested in laser-induced hypertensive monkeys, using one single day dose. At 0.01%, the maximum IOP decrease from baseline was 8.8 mmHg (19%) at 6 h.

EP4 [5] = biological target: T2, EP4; assay: EP4 flipr functional assay; assay type: cell-based; conditions: unit inferred
Description: as §1

hEP3A = biological target: T3, hEP3A (Homo sapiens, UniProt P43115); assay: Other receptors functional activity, hEP3A; assay type: cell-based
T3 sequence (P43115 1-390): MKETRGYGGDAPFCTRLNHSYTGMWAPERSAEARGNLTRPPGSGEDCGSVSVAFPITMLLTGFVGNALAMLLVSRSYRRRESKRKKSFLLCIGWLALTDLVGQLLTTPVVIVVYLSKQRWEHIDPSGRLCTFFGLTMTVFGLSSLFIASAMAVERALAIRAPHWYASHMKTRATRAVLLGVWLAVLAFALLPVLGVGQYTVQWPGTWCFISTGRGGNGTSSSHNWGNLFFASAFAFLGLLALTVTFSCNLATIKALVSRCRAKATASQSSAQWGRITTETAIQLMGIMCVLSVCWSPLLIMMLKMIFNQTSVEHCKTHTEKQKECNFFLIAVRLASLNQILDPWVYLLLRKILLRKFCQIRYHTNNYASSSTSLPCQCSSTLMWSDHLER
Description: as §1

hTP = biological target: T4, hTP (Homo sapiens, UniProt P21731); assay: Other receptors functional activity, hTP; assay type: cell-based
T4 sequence (P21731 1-343): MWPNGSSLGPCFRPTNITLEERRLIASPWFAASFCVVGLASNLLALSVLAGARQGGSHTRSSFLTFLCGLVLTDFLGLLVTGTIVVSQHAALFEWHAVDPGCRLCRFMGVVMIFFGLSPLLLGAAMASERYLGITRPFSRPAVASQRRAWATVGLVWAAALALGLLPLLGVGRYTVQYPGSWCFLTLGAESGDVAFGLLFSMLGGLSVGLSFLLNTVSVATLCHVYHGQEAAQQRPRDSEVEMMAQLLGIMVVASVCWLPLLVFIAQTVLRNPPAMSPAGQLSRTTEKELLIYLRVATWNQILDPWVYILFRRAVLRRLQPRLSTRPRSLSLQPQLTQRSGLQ
Description: as §1

T1 sequence (P43116 whole entry): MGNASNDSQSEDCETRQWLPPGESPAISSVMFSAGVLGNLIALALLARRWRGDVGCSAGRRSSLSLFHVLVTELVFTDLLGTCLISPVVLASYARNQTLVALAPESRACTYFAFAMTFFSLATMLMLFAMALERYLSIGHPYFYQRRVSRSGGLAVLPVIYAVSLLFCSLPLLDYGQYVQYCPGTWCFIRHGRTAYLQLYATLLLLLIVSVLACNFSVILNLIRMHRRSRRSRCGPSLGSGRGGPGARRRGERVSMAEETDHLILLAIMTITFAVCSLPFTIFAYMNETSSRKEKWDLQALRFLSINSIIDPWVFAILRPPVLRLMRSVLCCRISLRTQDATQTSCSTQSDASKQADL

SMILES	EC50 (EP2 [1]) [nM]	Ki (EP4 [2]) [nM]	Ki (EP2 [4]) [nM]	also measured
CCCCCCc1cnc2c(C(=O)Nc3cccc(OCC(=O)OC(C)C)c3)cccc2c1 [Isopropyl 2-(3-(3-hexylquinoline-8-carboxamido)phenoxy)acetate]				maximum ocular surface hyperemia (OSH) score (normotensive dogs; 0.01%, once daily for 5 days, at 28 h): 0.8
CCCCCC(O)c1ccc2c(C(=O)Nc3cccc(OCC(=O)OC(C)C)c3)cccc2c1 (centres unmarked) [Isopropyl 2-(3-(6-(1-hydroxyhexyl)-1-naphthamido)phenoxy)acetate]				maximum ocular surface hyperemia (OSH) score (normotensive dogs; 0.005%, once daily for 5 days, at 2 h): 1.6; maximum ocular surface hyperemia (OSH) score (normotensive dogs; 0.01%, once daily for 5 days, at 50 h): 1.5
CCCCCc1ccc2c(C(=O)Nc3cccc(OCC(=O)O)c3)cccc2c1 [Example 2, 2-(3-(6-Pentyl-1-naphthamido)phenoxy)acetic acid]	2	> 10000	383	
Cc1ccc2c(C(=O)Nc3cccc(OCC(=O)O)c3)cccc2c1 [Example 7, 2-(3-(6-Methyl-1-naphthamido)phenoxy)acetic acid]	65	> 10000	1190	
CCCCCCCc1ccc2c(C(=O)Nc3cccc(OCC(=O)O)c3)cccc2c1 [Example 4, 2-(3-(6-Heptyl-1-naphthamido)phenoxy)acetic acid]	15	7680	1200	EC50 (EP4 [5]): > 10000 nM
CCCCc1ccc2c(C(=O)Nc3cccc(OCC(=O)O)c3)cccc2c1 [Example 3, 2-(3-(6-Butyl-1-naphthamido)phenoxy)acetic acid]	1	> 10000	51	
CCCCc1ccc2c(C(=O)Nc3cccc(OCC(=O)OC(C)C)c3)cccc2c1 [Isopropyl 2-(3-(6-butyl-1-naphthamido)phenoxy)acetate]				maximum ocular surface hyperemia (OSH) score (normotensive dogs; 0.01%, once daily for 4 days, at 4 h): 0.9
CCCCCCc1ccc2c(C(=O)Nc3cccc(OCC(=O)OC(C)C)c3)cccc2c1 [Isopropyl 2-(3-(6-hexyl-1-naphthamido)phenoxy)acetate]				maximum ocular surface hyperemia (OSH) score (normotensive dogs; 0.05%, once daily for 5 days, at 26 h): 1.0
CCc1ccc2c(C(=O)Nc3cccc(OCC(=O)O)c3)cccc2c1 [Example 6, 2-(3-(6-Ethyl-1-naphthamido)phenoxy)acetic acid]	5	> 10000	112	
CCCCCCc1ccc2c(C(=O)Nc3cccc(OCC(=O)O)c3)cccc2c1 [Example 1, 2-(3-(6-Hexyl-1-naphthamido)phenoxy)acetic acid]	2	> 10000	99	
O=C(O)COc1cccc(NC(=O)c2cccc3ccccc23)c1 [Example 8, 2-(3-(1-Naphthamido)phenoxy)acetic acid]	83	> 10000	4600	
CCCc1ccc2c(C(=O)Nc3cccc(OCC(=O)O)c3)cccc2c1 [Example 5, 2-(3-(6-Propyl-1-naphthamido)phenoxy)acetic acid]	5	6920	30	EC50 (EP4 [5]): 7130 nM

Further lines, with some results ahead:

EC50 (EP2 [1]) [nM]	Ki (EP4 [2]) [nM]	Ki (EP2 [4]) [nM]	SMILES	also measured
2	2060	27	CCCCc1cnc2c(C(=O)Nc3cccc(OCC(=O)O)c3)cccc2c1 [Example 13, 2-(3-(3-Butylquinoline-8-carboxamido)phenoxy)acetic acid]	EC50 (EP4 [3]): > 10000 nM
0.8	2150	25	CCCCCCc1cnc2c(C(=O)Nc3cccc(OCC(=O)O)c3)cccc2c1 [Example 12, 2-(3-(3-Hexylquinoline-8-carboxamido)phenoxy)acetic acid]	EC50 (hEP3A): 13300 nM; EC50 (hTP): 6560 nM; EC50 (EP4 [5]): 4680 nM
25	2450	3210	CCCCCCc1ccc2c(C(=O)NCCc3ccc(C(=O)O)s3)cccc2c1 [Example 9, 5-(2-(6-Hexyl-1-naphthamido)ethyl)thiophene-2-carboxylic acid]	EC50 (EP4 [5]): 9400 nM
0.7	5310	63	CCCC(O)c1ccc2c(C(=O)Nc3cccc(OCC(=O)O)c3)cccc2c1 (centres unmarked) [Example 11, 2-(3-(6-(1-Hydroxybutyl)-1-naphthamido)phenoxy)acetic acid]	
25	8480	201	CCCCCOc1ccc2c(C(=O)Nc3cccc(OCC(=O)O)c3)cccc2c1 [Example 15, 2-(3-(6-(Pentyloxy)-1-naphthamido)phenoxy)acetic acid]	EC50 (EP4 [3]): > 10000 nM
12	2030	350	CCCCc1cnc2c(C(=O)NCCc3ccc(C(=O)O)s3)cccc2c1 [Example 14, 5-(2-(3-Butylquinoline-8-carboxamido)ethyl)thiophene-2-carboxylic acid]	EC50 (EP4 [3]): > 10000 nM
0.2	> 10000	37	CCCCCC(O)c1ccc2c(C(=O)Nc3cccc(OCC(=O)O)c3)cccc2c1 (centres unmarked) [Example 10, 2-(3-(6-(1-hydroxyhexyl)-1-naphthamido)phenoxy)acetic acid]	
